Results: patent US8633251B2, “Derivatives of aminoalkanols, method of obtaining of aminoalkanols and their use” (Uniwersytet Jagiellonski, priority 2008, dated 2014)

Experiments:
Assay type in all cases: in vivo
[1] = test system: maximal electroshock seizures; experiment: Maximum Electroshock Seizure (MES) test, mice; conditions: mice
Procedure, shortened: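 Mice received compound in methylcellulose i.p. or p.o. at 30, 100 and 300 mg/kg, with some tests at 10 and 3 mg/kg. At 0.5 or 4 h, after tetracaine eye-drops, current was delivered through corneal electrodes (60 Hz, 0.2 s, 50 mA). Groups were one mouse at 30 and 300 mg/kg and three at 100 mg/kg.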

[2] = test system: pentylenetetrazol-induced seizures; experiment: Subcutaneous Metrazol Test (ScMet), mice
Protocol: In order to define anticonvulsant activity, screening tests were performed, using animal models of seizures. […] The tests were based on administration of a compound to an animal and after certain time inducing state similar to epilepsy attack in human. Each substance (after dissolving in methylcellulose) was normally tested in doses 30, 100, and 300 mg/kg body weight (b.w.) (mice) or in 30 and 50 mg/kg b.w. (rats) in two possible routes of administration: intraperitoneal (i.p.) or oral (p.o.). Appropriate tests were performed 0.5 and 4 h after administration of the compound. […] (mice) the tests were also performed in doses 10 and 3 mg/kg b.w.
Subcutaneous Metrazol Test (ScMet) is a chemical test, where compounds are tested for activity in absence seizures (petit mal epilepsy). Pentetrazol (metrazol) is considered to block chloride channel in the GABAA receptor complex, therefore at a certain dose in animals it causes myoclonic jerks, next—clonic seizures, and then tonic seizures. The procedure consists in administration of a tested compound and after 0.5 or 4 h subcutaneous administration of pentylenetetrazol in the dose of 85 mg/kg b.w. (mice) or 70 mg/kg b.w. (rats) in a 0.85% solution in 0.9% NaCl. […] Normally the test is performed in single animals.

[3] = test system: neurotoxicity (rotarod); experiment: Neurotoxicity test (TOX), rotarod, mice
[4] = mice, dose 300 mg/kg b.w., 0.5 h
[5] = dose 100 mg/kg b.w., time 0.5 h
[6] = mice, dose 100 mg/kg b.w., time 0.5 h
[7] = mice, dose 300 mg/kg b.w., time 0.5 h

Molecule: CCC(O)CNC(=O)COc1ccc(Cl)cc1C (stereo not drawn) [Compound 81, R,S-1N-[(4-chlor-2-methylphenoxy)acetyl]amino-2-butanol]
- MES, No. of protected animals/No. of used animals ([1]; dose 300 mg/kg b.w., 0.5 h): 1/1
- ScMet, No. of protected animals/No. of used animals ([2]; dose 300 mg/kg b.w., 0.5 h): 1/1
- TOX, No. of animals exhibiting motor impairment/no. of used animals [3, 4]: 4/4

Molecule: CCC(O)CNC(=O)COc1c(C)cccc1Cl (stereo not drawn) [Compound 72, R,S-1N-[(2-chlor-6-methylphenoxy)acetyl]amino-2-butanol]
- MES, No. of protected animals/No. of used animals ([1]; dose 300 mg/kg b.w., 0.5 h): 1/1
- ScMet, No. of protected animals/No. of used animals ([2]; dose 300 mg/kg b.w., 0.5 h): 1/1
- TOX, No. of animals exhibiting motor impairment/no. of used animals [3, 4]: 4/4

Molecule: Cc1cccc(C)c1OCC(=O)N(C)CCO [Compound 59, R,S-2N-[(2,6-dimethylphenoxy)acetyl]-2N-methylamino-1-ethanol]
- MES, No. of protected animals/No. of used animals ([1]; dose 300 mg/kg b.w., 0.5 h): 1/1
- ScMet, No. of protected animals/No. of used animals ([2]; dose 300 mg/kg b.w., 0.5 h): 1/1

Molecule: Cc1cc(Cl)ccc1OCC(=O)NCC(C)O (stereo not drawn) [Compound 80, R,S-1N-[(4-chlor-2-methylphenoxy)acetyl]amino-2-propanol]
- MES, No. of protected animals/No. of used animals ([1]; dose 300 mg/kg b.w., 0.5 h): 1/1
- ScMet, No. of protected animals/No. of used animals ([2]; dose 300 mg/kg b.w., 0.5 h): 1/1
- TOX, No. of animals exhibiting motor impairment/no. of used animals [3, 4]: 4/4

Molecule: CCC(O)CNCCCOc1c(C)cccc1C (racemic) [Compound 54, R,S-1N-[(2,6-dimethylphenoxy)propyl]amino-2-butanol]
- MES, No. of protected animals/No. of used animals ([1]; dose 100 mg/kg b.w., 0.5 h): 2/2
- ScMet, No. of protected animals/No. of used animals ([2]; dose 30 mg/kg b.w., 0.5 h): 1/5
- ScMet, No. of protected animals/No. of used animals ([2]; dose 30 mg/kg b.w., 4 h): 1/1
- TOX, No. of animals exhibiting motor impairment/no. of used animals ([3]; mouse, in vivo, 30 mg/kg): 1/4
- TOX, No. of animals exhibiting motor impairment/no. of used animals ([3]; mouse, in vivo, 300 mg/kg): 4/4

Molecule: Cc1cccc(C)c1OCCN(C)CC(O)c1ccccc1.Cl (racemic) [Compound 22, R,S-2N-[(2,6-dimethylphenoxy)ethyl]-2N-methylamino-1-phenylethanol hydrochloride]
- MES, No. of protected animals/No. of used animals [1, 5]: 2/2
- MES, No. of protected animals/No. of used animals ([1]; dose 100 mg/kg b.w., time 4 h): 2/2
- TOX, No. of animals exhibiting motor impairment/no. of used animals [3, 6]: 8/8
- TOX, No. of animals exhibiting motor impairment/no. of used animals [3, 7]: 4/4

Molecule: CCC(CO)NCCOc1cccc(C)c1C (stereo not drawn) [Compound 2, R,S-2N-[(2,3-dimethylphenoxy)ethyl]amino-1-butanol]
- MES, No. of protected animals/No. of used animals [1, 5]: 3/3
- TOX, No. of animals exhibiting motor impairment/no. of used animals ([3]; mouse, in vivo, 100 mg/kg): 8/8
- TOX, No. of animals exhibiting motor impairment/no. of used animals ([3]; mouse, in vivo, 300 mg/kg): 4/4

Molecule: R-(+)-2N-[(2,6-dimethylphenoxy)acetyl]amino-1-propanol [Compound 61]
- MES, No. of protected animals/No. of used animals ([1]; dose 300 mg/kg b.w., 0.5 h): 1/1
- TOX, No. of animals exhibiting motor impairment/no. of used animals [3, 4]: 2/4

Molecule: CCC(O)CNCCOc1ccc(Cl)cc1C (stereo not drawn) [Compound 34, R,S-1N-[(4-chlor-2-methylphenoxy)ethyl]amino-2-butanol]
- MES, No. of protected animals/No. of used animals [1, 5]: 3/3
- TOX, No. of animals exhibiting motor impairment/no. of used animals ([3]; mice, dose 30 mg/kg b.w., time 0.5 h): 1/4
- TOX, No. of animals exhibiting motor impairment/no. of used animals [3, 6]: 7/8
- TOX, No. of animals exhibiting motor impairment/no. of used animals [3, 7]: 4/4

Molecule: CCC(CO)NCCOc1cc(C)ccc1C (stereo not drawn) [Compound 8, R,S-2N-[(2,5-dimethylphenoxy)ethyl]amino-1-butanol]
- MES, No. of protected animals/No. of used animals [1, 5]: 3/3
- TOX, No. of animals exhibiting motor impairment/no. of used animals ([3]; mouse, in vivo, 100 mg/kg): 8/8
- TOX, No. of animals exhibiting motor impairment/no. of used animals ([3]; mouse, in vivo, 300 mg/kg): 4/4

Molecule: Cc1cccc(OCCNCC(O)c2ccccc2)c1C (stereo not drawn) [Compound 4, R,S-2N-[(2,3-dimethylphenoxy)ethyl]amino-1-phenylethanol]
- ScMet, No. of protected animals/No. of used animals ([2]; dose 30 mg/kg b.w., time 0.5 h): 1/5
- TOX, No. of animals exhibiting motor impairment/no. of used animals [3, 6]: 4/8
- TOX, No. of animals exhibiting motor impairment/no. of used animals ([3]; mice, dose 100 mg/kg b.w., time 4 h): 1/4
- TOX, No. of animals exhibiting motor impairment/no. of used animals [3, 7]: 3/4
